Data taken from patent publication US20240350430A1, “GROWTH INHIBITOR OF METASTATIC HUMAN PROSTATE CANCER CELLS” (Watanabe Oyster Laboratory Co., Ltd., priority 2021, published 2024).

Test system: DU-145 cells
Assay: Cell invasion, Transwell chambers with Matrigel, DU-145 cells
Assay type: cell-based, human
Conditions: DHMBA 1, 10, or 100 μM, 24 hours
Experimental: The cell invasion activity of the prostate cancer PC-3 and DU-145 cells was measured using Transwell chambers (the catalogue number CLS3464-48EA of Corning, Life Sciences, USA). A chamber was placed in each well of the 24-hole plate. 50 μl of Matrigel (Corning Life Sciences, Cat. No. 356230, USA) was added to the upper surface of the chambers. After drying the gel, 500 μl of a suspension of the PC-3 or DU-145 cells (the cell number of 2.5×10^4/ml, the DMEM not containing FBS) was added to the upper surface of the gel. This cell suspension contained the DHMBA (0, 1, 10, or 100 μM). After the addition of the cell suspension to the chambers, it was incubated for one hour to cause the cells to adhere. 0.75 ml of the culture fluid not containing the FBS and a culture fluid containing 10% of FBS were added to the lower surface of the chambers. The cells on the plate were cultured under 5% of CO2, 95% of air, at 37° C., for 24 hours. […] After the drying, the number of the stained cells was counted by the microscope (Olympus MTV-3, Olympus Corporation, Tokyo, Japan). […]
The cell invasion activities of the prostate cancer PC-3 and DU-145 cells were measured using the Transwell chambers. […] After the drying, the number of the stained cells was counted by the microscope (Olympus MTV-3, Olympus Corporation, Tokyo, Japan). […]

Q: For `COc1c(O)cc(CO)cc1O` [DHMBA, 3,5-dihydroxy-4-methoxybenzyl alcohol], which invasion is on record?
A: The invasion was “significantly inhibited”.
